# Results: patent US11389415B2, “Methods of regulating cannabinoid receptor activity-related disorders and diseases” (The United States of America as represented by the …, priority 2012, dated 2022)
# Several values for one entry are separate records, joined by “and”; a condition that tells them apart may be missing. Equal values may be shown once.
# Experiments:
# [1] = Plasma and brain tissue concentrations after IV administration in Sprague-Dawley rats; format: in vivo, rat; details: for AUCinf / AUClast / Cmax / t1/2 (hr), elimination phase half life / C^0 (ng/ml), plasma concentration extrapolated to time 0 / Cl (ml/hr/kg), whole body clearance / V (l/kg), apparent volume of distribution: male Sprague-Dawley rats; for AUCinf / AUClast / Cmax / t1/2 (hr), elimination phase half life: plasma
# Experimental: To determine plasma and brain tissue concentrations of MNF, the concentrations of MNF and its metabolites in plasma and brain tissue samples obtained from male Sprague-Dawley rats were determined after administration of a single IV dose of 10 mg/kg of MNF. The assays were conducted using an Eclipse XDB-C18 guard column (4.6 mm×12.5 mm) and an Atlantis HILIC column (150×2.1 mm ID, […]). The mobile phase consisted of water containing 0.1% formic acid as Component A and acetonitrile as component B. A linear gradient was run as follows: 0 minutes 95% B; 5 minutes 60% B; 6 minutes 80% B; 10 minutes 95% B at a flow rate of 1.0 ml/minutes. The total run time was 15 minutes per sample. Identification and quantification of the analytes was accomplished using an API-4000 LC-MS/MS in positive electrospray ionization mode and data was acquired employing multiple reaction monitoring (MRM) and the following MRM transitions: MNF (369-200); MNF-Gluc (545-200).
# Ten mg/kg MNF was administered IV to male Sprague-Dawley rats and the plasma concentrations of MNF were determined between 10 minutes and 24 hours post administration with the levels measured in 3 animals per time point. In the same study, the concentration of MNF in brain tissue was measured between 10 and 60 minutes after administration with 3 animals per time point. The MNF concentration in brain tissue was 200 ng/mg tissue at 10 minutes after administration and peaked at 30 minutes at 800 ng/mg tissue. The relative distribution between the concentration of MNF in blood (measured as ng/ml) and brain tissue (measured as ng/mg tissue) was 0.2 at 10 minutes and 1.0 at 30 minutes and 60 minutes reflecting an equivalent distribution between both the central and peripheral body compartments. […] Further, the apparent volume of distribution (V) is high indicating extensive tissue distribution.
# HepG2 cells = experiment: [3H]-Thymidine incorporation assay in HepG2 cells; format: cell-based, human; details: 1 μM, 24 h
# Procedure, shortened: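 HepG2 and U87MG cells (~50,000/well) were treated 24 hours at 37° C with test compounds in serum-free medium, then labelled 16 hours with 1 μCi [3H]-thymidine. Cells were lysed in 0.1N NaOH and incorporation measured by scintillation counting, expressed as CPM relative to control cells.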
# [2] = In vitro metabolic stability, rat liver microsomes; format: in vitro ADME; details: rat liver microsomes and cofactors, 37° C., 0-60 minutes
# Experimental: FIG. 10 presents the data from the in vitro metabolic stability study in which MNF was incubated (in duplicate) with active and heat-inactivated human (HLM) and rat (RLM) liver microsomes and cofactors at 37° C. Aliquots were removed at 0, 15, 30 and 60 minutes and the amount of test compound (MNF) remaining at each time point was determined by LC-MS/MS.
# GPR55 = GPR55 (Homo sapiens, UniProt Q9Y2T6); experiment: Cellular uptake of TocriFluor T1117 in HepG2 cells; format: cell-based; parameters: host or cells: HepG2 hepatocarcinoma cells
# GPR55, sequence (Q9Y2T6 whole entry): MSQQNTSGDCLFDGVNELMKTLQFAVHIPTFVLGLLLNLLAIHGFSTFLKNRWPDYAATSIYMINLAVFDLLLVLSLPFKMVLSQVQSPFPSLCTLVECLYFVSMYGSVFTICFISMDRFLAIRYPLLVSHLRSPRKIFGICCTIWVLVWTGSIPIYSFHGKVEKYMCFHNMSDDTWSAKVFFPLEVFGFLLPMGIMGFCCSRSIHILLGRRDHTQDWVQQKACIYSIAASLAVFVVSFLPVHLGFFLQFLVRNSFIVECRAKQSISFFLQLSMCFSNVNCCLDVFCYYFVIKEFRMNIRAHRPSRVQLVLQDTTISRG
# U87MG cells = experiment: [3H]-Thymidine incorporation in U87MG cells; format: cell-based, human; details: compound alone
# Experimental: Maintenance and Treatment of Cell Lines. Human HepG2 hepatocarcinoma cells and human U87MG glioma cells (ATCC, Manassas, Va.) were maintained in EMEM medium supplemented with 1% L-glutamine, 1% sodium pyruvate, 1% penicillin/streptomycin, and 10% FBS (Hyclone, Logan, Utah). The human 1321N1 astrocytoma cells (European Collection of Cell Cultures, Sigma-Aldrich) were cultured in Dulbecco's modified Eagle's medium supplemented with 10% FBS and penicillin/streptomycin. All cell lines were cultured at 37° C. in 5% CO2, and the medium was replaced every 2-3 days.
# Cells were seeded in 12-well plates at approximately 50,000 cells/well and incubated at 37° C. After 24 hours, the wells were rinsed with PBS and replaced with serum-free medium containing the appropriate concentration of the test compounds. After another 24-hour incubation at 37° C., 1 μCi of [^3H]-thymidine was added to each well and incubated at 37° C. for 16 hours. [^3H]-Thymidine incorporation into DNA was monitored after the cells were washed twice with PBS and then lysed in 600 μL of 0.1N NaOH for 30 minutes with shaking. The lysate was then mixed with 3 mL of liquid scintillation cocktail (Beckman Coulter, Inc., Brea, Calif.), and radioactivity was measured by liquid scintillation counting using Beckman Coulter LS6000IC Scintillation Counter. Data are shown as CPM incorporated compared to the control cells.
# CYP3A4 = biological target: T1, CYP3A4 (Homo sapiens, UniProt P08684); experiment: CYP inhibition in human liver microsomes, CYP3A4; format: in vitro ADME; details: 10 μM, 20 minutes, 37° C.
# T1 construct: from tissue; host or cells: human liver microsomes
# T1 sequence (P08684 whole entry): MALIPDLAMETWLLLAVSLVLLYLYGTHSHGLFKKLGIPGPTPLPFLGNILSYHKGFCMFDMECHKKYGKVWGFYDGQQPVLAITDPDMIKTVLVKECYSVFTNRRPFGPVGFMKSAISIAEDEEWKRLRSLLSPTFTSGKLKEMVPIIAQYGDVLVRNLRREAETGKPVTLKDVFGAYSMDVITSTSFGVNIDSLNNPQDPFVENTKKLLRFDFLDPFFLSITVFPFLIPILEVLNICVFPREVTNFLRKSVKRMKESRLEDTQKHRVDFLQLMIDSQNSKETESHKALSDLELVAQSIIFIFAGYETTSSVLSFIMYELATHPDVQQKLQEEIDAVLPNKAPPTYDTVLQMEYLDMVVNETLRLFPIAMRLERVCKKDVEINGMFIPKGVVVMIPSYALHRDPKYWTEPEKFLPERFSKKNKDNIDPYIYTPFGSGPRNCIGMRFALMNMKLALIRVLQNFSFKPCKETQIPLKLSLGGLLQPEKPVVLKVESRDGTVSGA
# Experimental: Incubations containing known CYP inhibitors were also included as positive controls. Formation of the model substrate metabolites was measured by LC-MS/MS and compared to control incubations (incubation of substrates with microsomes and cofactors, no test articles or inhibitors). CYP activity in presence of test compound (MNF) that was less than 70% of control was considered significant. MNF (10 μM) inhibited CYP2D6 and CYP3A4 to less than 70% of the control. Further, the primary metabolite was determined to be O-demethylated-MNF. These studies indicate that MNF alters the metabolism of other drugs or endogenous compounds that are substrates for CYP2D6 and/or CYP3A4 isoforms, when present in the plasma or liver at 10 μM or higher.
# CAPAN = experiment: tumor cell growth, CAPAN; details: read-out: IC50 (uM), CAPAN (Pancreatic C)
# [3] = 10 mg/kg IV, individual rat, 10 mg/kg
smiles,measurement,setting,value
"COc1ccc(C[C@@H](C)NC[C@H](O)c2cc(O)cc(O)c2)c2ccccc12 [(R,R′)-MNF, (R,R′)-4′-methoxy-1-naphthylfenoterol]",AUCinf,"[1]; 10 mg/kg IV, Mean",4378.0 ng·h/mL
same,AUClast,"[1]; 10 mg/kg IV, Mean",3519.3 ng·h/mL
same,Cmax,"[1]; 10 mg/kg IV, Mean",1823.0 ng/mL
same,"t1/2 (hr), elimination phase half life","[1]; 10 mg/kg IV, Mean",13.8 h
same,AUCinf,[1]; [3],4103.6 ng·h/mL and 5335.2 ng·h/mL and 3695.2 ng·h/mL
same,AUClast,[1]; [3],3582.2 ng·h/mL and 4070.7 ng·h/mL and 2905.1 ng·h/mL
same,Cmax,[1]; [3],1780.7 ng/mL and 2304.9 ng/mL and 1383.4 ng/mL
same,"t1/2 (hr), elimination phase half life",[1]; [3],9.8 h and 18.6 h and 13.0 h
same,"C^0 (ng/ml), plasma concentration extrapolated to time 0","[1]; 10 mg/kg IV, Mean",3168.5 ng/mL
same,"Cl (ml/hr/kg), whole body clearance","[1]; 10 mg/kg IV, Mean",2339.1 mL/h/kg
same,"V (l/kg), apparent volume of distribution","[1]; 10 mg/kg IV, Mean",45.1 L/kg
same,"C^0 (ng/ml), plasma concentration extrapolated to time 0",[1]; [3],3033.4 ng/mL and 4131.4 ng/mL and 2340.7 ng/mL
same,"Cl (ml/hr/kg), whole body clearance",[1]; [3],2436.9 mL/h/kg and 1874.4 mL/h/kg and 2706.2 mL/h/kg
same,"V (l/kg), apparent volume of distribution",[1]; [3],34.3 L/kg and 50.4 L/kg and 50.6 L/kg
same,MNF concentration in brain tissue,"[1]; rats, 10 mg/kg IV, 10 minutes after administration",200 ng/mg tissue
same,MNF concentration in brain tissue (peak),"[1]; rats, 10 mg/kg IV, 30 minutes after administration",800 ng/mg tissue
same,passage through the blood brain barrier,"[1]; rats, IV",capable of passing through the blood brain barrier
same,% Change in HepG2 cells ([3H]-thymidine incorporation),HepG2 cells,−59.4%
same,"metabolic stability, MNF levels",[2],greater decrease in MNF levels
same,reduction in T1117 incorporation,"GPR55; HepG2, MNF alone (1 μM), 10 nM T1117",~70%
same,reduction in T1117 incorporation as compared to vehicle-treated cells,"GPR55; HepG2, MNF with AM251 added either before or after the 30-minutes MNF treatment",~6.8 fold
same,T1117 uptake,"GPR55; HepG2, MNF 1 μM or AM251 10 μM for 1 hour, then T1117 0.1 μM",dramatically reduced
same,effect on cellular proliferation,U87MG cells,potent inhibition of cellular proliferation
same,CYP3A4 activity in presence of test compound,CYP3A4,less than 70 % of the control
"COc1cccc2c1C(=O)c1c(O)c3c(c(O)c1C2=O)C[C@@](O)(C(=O)CO)C[C@@H]3O[C@H]1C[C@H](N)[C@H](O)[C@H](C)O1 [Doxorubicin, reference compound]",IC50,CAPAN,0.23 µM
